# Laboratory results as given in ChEMBL document CHEMBL1201862, “PubChem BioAssay data set” (2004).
#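 Five concentrations, 48 hours, 96-well plates. GI50: concentration for 50% inhibition of growth.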 Active and inactive are the calls of the source. No stated cut-off is given here; in the data, active = GI50 up to about 1.1 µM and inactive = higher.
# Tests used:
# Test in all cases: NCI-60 cell line screen, 48 h
# A549 = test system: A549
# NCI/ADR-RES = test system: NCI/ADR-RES
# SK-MEL-5 = test system: SK-MEL-5
# UACC-257 = test system: UACC-257
# SNB-19 = test system: SNB-19
# SF-295 = test system: SF-295
# OVCAR-5 = test system: OVCAR-5
# NCI-H460 = test system: NCI-H460
# HCC 2998 = test system: HCC 2998
# SF-539 = test system: SF-539
# KM12 = test system: KM12
# DU-145 = test system: DU-145
# SNB-75 = test system: SNB-75
# HCT-15 = test system: HCT-15
# RXF 393 = test system: RXF 393
# NCI-H23 = test system: NCI-H23
# MDA-MB-231 = test system: MDA-MB-231
# SR = test system: SR
# NCI-H226 = test system: NCI-H226
# NCI-H522 = test system: NCI-H522
SMILES,GI50 (A549),GI50 (NCI/ADR-RES),GI50 (SK-MEL-5),GI50 (UACC-257),GI50 (SNB-19),GI50 (SF-295),GI50 (OVCAR-5),GI50 (NCI-H460),GI50 (HCC 2998),GI50 (SF-539),GI50 (KM12),GI50 (DU-145),GI50 (SNB-75),GI50 (HCT-15),GI50 (RXF 393),GI50 (NCI-H23),GI50 (MDA-MB-231),GI50 (SR),GI50 (NCI-H226),GI50 (NCI-H522)
NC(C(F)(F)F)(C(F)(F)F)P(=O)(Cc1ccccc1)Cc1ccccc1,> 100 µM (inactive),> 100 µM (inactive),> 100 µM (inactive),> 100 µM (inactive),> 100 µM (inactive),> 100 µM (inactive),> 100 µM (inactive),> 100 µM (inactive),> 100 µM (inactive),42.8 µM (inactive),> 100 µM (inactive),> 100 µM (inactive),55.6 µM (inactive),> 100 µM,28.9 µM (inactive),> 100 µM (inactive),> 100 µM (inactive),> 100 µM (inactive),–,–
CCCCNC(=S)N/C=C1\C(=O)Oc2ccccc2C1=O,> 100 µM (inactive),> 100 µM (inactive),> 100 µM (inactive),> 100 µM (inactive),49.4 µM (inactive),> 100 µM (inactive),> 100 µM (inactive),64.1 µM (inactive),68.7 µM (inactive),98.4 µM (inactive),> 100 µM (inactive),99.3 µM (inactive),2.69 µM (inactive),48 µM,–,88.5 µM (inactive),73.8 µM (inactive),–,> 100 µM (inactive),–
O=C(c1ccccc1)c1ccc2c(c1)NC(=O)c1ccccc1SSc1ccccc1C(=O)N2,> 100 µM (inactive),> 100 µM (inactive),> 100 µM (inactive),> 100 µM (inactive),> 100 µM (inactive),> 100 µM (inactive),> 100 µM (inactive),> 100 µM (inactive),–,> 100 µM (inactive),> 100 µM (inactive),> 100 µM (inactive),–,> 100 µM,> 100 µM (inactive),> 100 µM (inactive),> 100 µM (inactive),85.5 µM (inactive),> 100 µM (inactive),> 100 µM (inactive)
CC[C@H](C)C1=C(OC(C)=O)[N@+]2([O-])Oc3ccc(-c4c(O)c(O)c(-c5ccc(OC(C)=O)cc5)c(OC(C)=O)c4OC(C)=O)cc3O[C@]2([C@@H](C)CC)C(=O)N1O,18.8 µM (inactive),18.5 µM (inactive),16.4 µM (inactive),> 50 µM (inactive),32.1 µM (inactive),22.8 µM (inactive),22.9 µM (inactive),18.5 µM (inactive),–,14.2 µM (inactive),20.6 µM (inactive),44.5 µM (inactive),–,19.2 µM,29.6 µM (inactive),29.8 µM (inactive),17.8 µM (inactive),13.6 µM (inactive),–,10.6 µM (inactive)
CN(C)C(=S)N/N=C\C(=N/NC(=S)N(C)C)c1ccccc1,5.31 µM (inactive),2.98 µM (inactive),9.84 µM (inactive),> 23.4 µM (inactive),17 µM (inactive),4.93 µM (inactive),> 30.9 µM (inactive),1.36 µM (inactive),7.53 µM (inactive),10.1 µM (inactive),15 µM (inactive),4.23 µM (inactive),13.4 µM (inactive),2.71 µM,7.36 µM (inactive),9.46 µM (inactive),19.3 µM (inactive),–,4.61 µM (inactive),3.15 µM (inactive)
c1ccc(C(C2=Nc3cccc4cccc(c34)N2)c2ccccc2)cc1,37.2 µM (inactive),21.2 µM (inactive),20.5 µM (inactive),24.5 µM (inactive),37.8 µM (inactive),21.1 µM (inactive),–,24.7 µM (inactive),20.6 µM (inactive),17.2 µM (inactive),20.6 µM (inactive),32.2 µM (inactive),22.3 µM (inactive),25.1 µM,27.3 µM (inactive),28.1 µM (inactive),30.8 µM (inactive),–,31.6 µM (inactive),16.6 µM (inactive)
O=C(/C=C/c1ccc(Cl)cc1)c1ccc(Cl)s1,62.2 µM (inactive),72.1 µM (inactive),> 10 µM (inactive),> 100 µM (inactive),50.5 µM (inactive),78.3 µM (inactive),> 100 µM (inactive),67.8 µM (inactive),22.2 µM (inactive),36.5 µM (inactive),29.1 µM (inactive),> 100 µM (inactive),39 µM (inactive),60.3 µM,23.2 µM (inactive),38.9 µM (inactive),60.7 µM (inactive),34.3 µM (inactive),–,64.1 µM (inactive)
C/C=C/C1OC(O)(C(C)C(O)[C@H](C)C2OC(=O)/C(OC)=C/C(C)=C/[C@@H](C)[C@@H](O)[C@@H](C)C(O)C(C)C/C(C)=C/C=C/C2OC)C[C@@H](OC2CC(O)C(OC(N)=O)C(C)O2)C1C (stereo partly drawn),< 0.01 µM (active),< 0.0127 µM (active),< 0.01 µM (active),< 0.01 µM (active),< 0.01 µM (active),< 0.01 µM (active),–,< 0.01 µM (active),< 0.01 µM (active),< 0.01 µM (active),< 0.01 µM (active),< 0.01 µM (active),< 0.01 µM (active),< 0.01 µM,–,< 0.01 µM (active),< 0.01 µM (active),–,< 0.01 µM (active),< 0.01 µM (active)
